Test results from patent US20040147605A1, “Drug preparations” (priority 2001, published 2004).

Test system: male Hartley guinea pigs
Assay: Antitussive effect test: capsaicin-induced cough in guinea pigs with SO2-induced respiratory tract inflammation
Assay type: in vivo, guinea pig
Settings: for Frequency of cough: capsaicin 10^-6 mol/l spray, coughs counted over 15 minutes, control group 22.4 ± 0.8; for Antitussive effect (in words): summary of Table 1, administered alone or in combination
From the text: The synergetic effect of using fudosteine and an antitussive compound in combination was examined according to the following method.
Five male Hartley guinea pigs for one group, each having a weight of 300-400 g, were used as test animals. According to the method of Miyata et al. (Arch. Int. Pharmacodyn. Ther., vol. 304, p. 277, 1990), the guinea pigs were exposed to SO2 gas using an exposure apparatus for two hours a day in eight consecutive days to cause respiratory tract inflammation. The samples of which the components and dose are shown in Table 1 were orally administered before exposure to SO2 gas once a day in eight consecutive days since the start date of exposure. The guinea pigs were confined in a chamber without being anesthetized. On the date following the last SO2 exposure date, capsaicin (10^−6 mol/l) was sprayed over the chamber for two minutes using a ultrasonic nebulizer (TUR-3200, Nihon Kohden Corporation) to cause cough in the guinea pigs. […] The frequency of cough during this period was counted.

In the case of COc1ccc2c(c1)[C@]13CCCC[C@@H]1[C@H](C2)N(C)CC3 [Dextromethorphan], the Frequency of cough (dextromethorphan 150 mg/kg orally once a day for 8 days) is reported as 13.6 ± 1.0, the Frequency of cough (dextromethorphan 300 mg/kg orally once a day for 8 days) is reported as 10.2 ± 0.6 ^$ and the “Antitussive effect (in words)” value is reported as “exhibited an antitussive effect”.
With N[C@@H](CSCCCO)C(=O)O [Fudosteine, S-(3-hydroxypropyl)-L-cysteine] the Frequency of cough (fudosteine 30 mg/kg orally once a day for 8 days) was 22.6 ± 1.1 and the “Antitussive effect (in words)” value was “did not exhibit an antitussive effect”.
